From ChEMBL document CHEMBL5316329, “Structure-Based Optimization of 2,4,5-Trisubstituted Pyrimidines as Potent HIV-1 Non-Nucleoside Reverse Transcriptase Inhibitors: Exploiting the Tolerant Regions of the Non-Nucleoside Reverse Transcriptase Inhibitors' Binding Pocket” (J Med Chem, 2023)

Columns and labels:
Cytochrome P450 1A2 = molecular target: T1, Cytochrome P450 1A2 (Homo sapiens, UniProt P05177); assay: Inhibition of CYP1A2 (unknown origin); assay type: ADME
T1 sequence (P05177 whole entry): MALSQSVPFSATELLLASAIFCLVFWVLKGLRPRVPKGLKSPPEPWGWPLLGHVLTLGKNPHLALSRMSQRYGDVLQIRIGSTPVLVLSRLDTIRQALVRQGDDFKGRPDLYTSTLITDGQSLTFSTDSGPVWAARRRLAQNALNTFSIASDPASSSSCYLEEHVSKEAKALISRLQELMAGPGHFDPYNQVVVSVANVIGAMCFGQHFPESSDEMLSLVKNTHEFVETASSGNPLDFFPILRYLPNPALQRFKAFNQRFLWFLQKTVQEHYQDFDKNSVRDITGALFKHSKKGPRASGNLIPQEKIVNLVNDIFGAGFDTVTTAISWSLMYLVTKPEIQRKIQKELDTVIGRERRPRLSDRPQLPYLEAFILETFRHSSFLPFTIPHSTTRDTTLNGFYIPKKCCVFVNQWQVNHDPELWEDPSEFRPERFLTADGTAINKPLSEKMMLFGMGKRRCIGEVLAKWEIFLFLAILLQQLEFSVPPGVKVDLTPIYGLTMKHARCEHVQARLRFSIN

[1] = system: Human immunodeficiency virus 1; assay: Antiviral activity against NNRTI-resistant HIV-1 RES056 infected in human MT4 cells assessed as virus-induced cytopathicity treated for 5 days by MTT assay; assay type: functional, organism-based; settings: Human immunodeficiency virus 1, RES056, MT4, 120 h
[2] = AUC (0 to t) in Sprague-Dawley rat at 2 mg/kg, iv; assay type: ADME, organism-based; parameters: dose 2 mg/kg, route iv; settings: in vivo
[3] = Selectivity index, ratio of CC50 for human MT4 cells to EC50 for wild-type HIV-1 IIIB infected in human MT4 cells; assay type: toxicity, cell-based; settings: read-out: Selectivity Index
[4] = molecular target: Human immunodeficiency virus type 1 reverse transcriptase (Human immunodeficiency virus 1, UniProt Q72547); assay: Inhibition of wild-type HIV-1 reverse transcriptase assessed as inhibition of biotin-dUTP incorporation
[5] = system: Human immunodeficiency virus 1; assay: Antiviral activity against HIV-1 F227L/V106A mutant infected in human MT4 cells assessed as virus-induced cytopathicity treated for 5 days by MTT assay; assay type: functional, organism-based; settings: Human immunodeficiency virus 1, MT4, 120 h
[6] = system: Human immunodeficiency virus 1; assay: Antiviral activity against HIV-1 E138K mutant infected in human MT4 cells assessed as virus-induced cytopathicity treated for 5 days by MTT assay; assay type: functional, organism-based; settings: Human immunodeficiency virus 1, MT4, 120 h
[7] = Tmax in Sprague-Dawley rat at 10 mg/kg, po; assay type: ADME, organism-based; settings: in vivo
[8] = system: Human immunodeficiency virus 1; assay: Antiviral activity against HIV-1 harboring Y181C mutant infected in human MT4 cells assessed as virus-induced cytopathicity treated for 5 days by MTT assay; assay type: functional, organism-based; settings: Human immunodeficiency virus 1, MT4, 120 h
[9] = system: Human immunodeficiency virus 1; assay: Antiviral activity against HIV-1 harboring L100I mutant infected in human MT4 cells assessed as virus-induced cytopathicity treated for 5 days by MTT assay; assay type: functional, organism-based; settings: Human immunodeficiency virus 1, MT4, 120 h
Cytochrome P450 3A4 = Cytochrome P450 3A4 (Homo sapiens, UniProt P08684); assay: Inhibition of CYP3A4 (unknown origin) using midazolam as substrate; assay type: ADME
Sequence of Cytochrome P450 3A4 (P08684 whole entry): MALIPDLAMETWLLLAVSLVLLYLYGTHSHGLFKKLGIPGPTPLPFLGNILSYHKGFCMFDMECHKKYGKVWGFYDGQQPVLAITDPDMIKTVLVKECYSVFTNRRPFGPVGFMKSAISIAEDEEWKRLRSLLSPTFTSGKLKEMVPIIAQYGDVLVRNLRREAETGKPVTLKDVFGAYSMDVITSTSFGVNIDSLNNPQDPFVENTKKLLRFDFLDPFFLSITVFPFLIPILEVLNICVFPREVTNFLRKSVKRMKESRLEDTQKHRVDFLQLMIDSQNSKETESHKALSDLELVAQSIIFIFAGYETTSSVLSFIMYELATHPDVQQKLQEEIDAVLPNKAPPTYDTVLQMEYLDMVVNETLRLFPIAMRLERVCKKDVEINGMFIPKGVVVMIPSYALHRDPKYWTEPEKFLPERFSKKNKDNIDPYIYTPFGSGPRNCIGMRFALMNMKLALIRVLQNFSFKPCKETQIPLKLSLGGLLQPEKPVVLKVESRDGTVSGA

[10] = Oral bioavailability in Sprague-Dawley rat at 10 mg/kg; assay type: ADME, organism-based; settings: in vivo
[11] = Cytotoxicity against human MT4 cells assessed as reduction in cell viability treated for 5 days by MTT assay; assay type: toxicity, cell-based; settings: time 5 day
Cytochrome P450 2C9 = Cytochrome P450 2C9 (Homo sapiens, UniProt P11712); assay: Inhibition of CYP2C9 (unknown origin); assay type: ADME
Sequence of Cytochrome P450 2C9 (P11712 whole entry): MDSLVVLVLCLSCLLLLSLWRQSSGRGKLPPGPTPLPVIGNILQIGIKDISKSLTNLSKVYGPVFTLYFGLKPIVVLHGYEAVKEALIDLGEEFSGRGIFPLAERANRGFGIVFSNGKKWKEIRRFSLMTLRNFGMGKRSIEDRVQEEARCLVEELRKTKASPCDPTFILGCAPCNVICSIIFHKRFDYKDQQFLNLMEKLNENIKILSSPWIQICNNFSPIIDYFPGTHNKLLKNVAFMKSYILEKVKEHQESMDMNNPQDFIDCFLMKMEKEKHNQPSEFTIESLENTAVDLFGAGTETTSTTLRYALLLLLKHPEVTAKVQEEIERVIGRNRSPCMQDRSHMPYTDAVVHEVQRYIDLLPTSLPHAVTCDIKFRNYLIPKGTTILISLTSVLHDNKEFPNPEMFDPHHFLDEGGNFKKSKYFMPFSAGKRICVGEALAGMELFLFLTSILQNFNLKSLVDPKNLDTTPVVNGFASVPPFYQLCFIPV

[12] = Cmax in Sprague-Dawley rat at 10 mg/kg, po; assay type: ADME, organism-based; parameters: dose 10 mg/kg, route po; settings: in vivo
[13] = system: Human immunodeficiency virus 1; assay: Antiviral activity against HIV-1 harboring Y188L mutant infected in human MT4 cells assessed as virus-induced cytopathicity treated for 5 days by MTT assay; assay type: functional, organism-based; settings: Human immunodeficiency virus 1, MT4, 120 h
Cytochrome P450 2D6 = Cytochrome P450 2D6 (Homo sapiens, UniProt P10635); assay: Inhibition of CYP2D6 (unknown origin); assay type: ADME
Sequence of Cytochrome P450 2D6 (P10635 whole entry): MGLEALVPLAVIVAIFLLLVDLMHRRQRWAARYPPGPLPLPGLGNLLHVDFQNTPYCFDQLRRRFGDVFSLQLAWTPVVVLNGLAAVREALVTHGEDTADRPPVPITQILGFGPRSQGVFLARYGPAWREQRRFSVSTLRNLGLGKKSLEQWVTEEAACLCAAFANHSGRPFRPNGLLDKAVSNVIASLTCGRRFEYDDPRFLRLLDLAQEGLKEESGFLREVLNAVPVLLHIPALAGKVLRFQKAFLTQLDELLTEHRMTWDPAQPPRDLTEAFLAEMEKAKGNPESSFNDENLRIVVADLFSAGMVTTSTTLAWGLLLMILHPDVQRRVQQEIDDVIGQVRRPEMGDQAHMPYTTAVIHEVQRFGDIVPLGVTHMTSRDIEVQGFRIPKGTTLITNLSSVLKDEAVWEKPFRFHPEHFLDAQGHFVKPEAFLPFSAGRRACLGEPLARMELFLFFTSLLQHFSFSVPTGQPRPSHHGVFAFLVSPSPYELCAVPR

[14] = Cmax in Sprague-Dawley rat at 2 mg/kg, iv; assay type: ADME, organism-based; parameters: dose 2 mg/kg, route iv; settings: in vivo
[15] = AUC (0 to infinity) in Sprague-Dawley rat at 10 mg/kg, po; assay type: ADME, organism-based; parameters: dose 10 mg/kg, route po; settings: in vivo
[16] = Half life in Sprague-Dawley rat at 2 mg/kg, iv; assay type: ADME, organism-based; settings: in vivo
[17] = system: Human immunodeficiency virus 1; assay: Antiviral activity against wild-type HIV-1 IIIB infected in human MT4 cells assessed as virus-induced cytopathicity treated for 5 days by MTT assay; assay type: functional, organism-based; settings: Human immunodeficiency virus 1, IIIB, MT4, 120 h
[18] = AUC (0 to infinity) in Sprague-Dawley rat at 2 mg/kg, iv; assay type: ADME, organism-based; parameters: dose 2 mg/kg, route iv; settings: in vivo
Cytochrome P450 2C19 = Cytochrome P450 2C19 (Homo sapiens, UniProt P33261); assay: Inhibition of CYP2C19 (unknown origin); assay type: ADME
Sequence of Cytochrome P450 2C19 (P33261 whole entry): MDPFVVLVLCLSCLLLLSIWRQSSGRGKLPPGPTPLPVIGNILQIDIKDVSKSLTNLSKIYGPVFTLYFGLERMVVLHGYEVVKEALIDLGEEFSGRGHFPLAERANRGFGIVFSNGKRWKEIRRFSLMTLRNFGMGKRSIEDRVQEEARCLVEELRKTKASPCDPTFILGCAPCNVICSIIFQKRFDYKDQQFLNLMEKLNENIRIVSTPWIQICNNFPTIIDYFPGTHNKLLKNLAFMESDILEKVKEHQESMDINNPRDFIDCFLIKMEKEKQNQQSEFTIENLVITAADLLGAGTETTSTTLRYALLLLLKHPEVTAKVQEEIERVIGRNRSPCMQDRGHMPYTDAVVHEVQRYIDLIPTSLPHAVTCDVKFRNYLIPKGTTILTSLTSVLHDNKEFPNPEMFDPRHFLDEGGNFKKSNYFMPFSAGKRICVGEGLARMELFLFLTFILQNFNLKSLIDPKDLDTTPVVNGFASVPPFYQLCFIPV

[19] = Acute toxicity in Kunming mouse assessed as body weight change at 2000 mg/kg, po measured after 7 days; assay type: organism-based; settings: in vivo, 168 h, time 7 day
[20] = Clearance in Sprague-Dawley rat at 2 mg/kg, iv; assay type: ADME, organism-based; settings: in vivo
[21] = AUC (0 to t) in Sprague-Dawley rat at 10 mg/kg, po; assay type: ADME, organism-based; parameters: dose 10 mg/kg, route po; settings: in vivo
[22] = system: Human immunodeficiency virus 1; assay: Antiviral activity against HIV-1 harboring K103N/Y181C mutant infected in human MT4 cells assessed as virus-induced cytopathicity treated for 5 days by MTT assay; assay type: functional, organism-based; settings: Human immunodeficiency virus 1, MT4, 120 h
[23] = Half life in Sprague-Dawley rat at 10 mg/kg, po; assay type: ADME, organism-based; settings: in vivo
[24] = Tmax in Sprague-Dawley rat at 2 mg/kg, iv; assay type: ADME, organism-based; settings: in vivo
[25] = Acute toxicity in Kunming mouse assessed as mortality at 2000 mg/kg, po measured after 7 days; assay type: organism-based; settings: in vivo, 168 h, time 7 day
[26] = Selectivity index, ratio of CC50 for human MT4 cells to EC50 for NNRTI-resistant HIV-1 RES056 infected in human MT4 cells; assay type: toxicity, cell-based; settings: read-out: Selectivity Index
[27] = Acute toxicity in Kunming mouse assessed as poisoning symptoms at 2000 mg/kg, po measured after 7 days; assay type: organism-based; settings: in vivo, 168 h, time 7 day
[28] = system: Human immunodeficiency virus 1; assay: Antiviral activity against HIV-1 harboring K103N mutant infected in human MT4 cells assessed as virus-induced cytopathicity treated for 5 days by MTT assay; assay type: functional, organism-based; settings: Human immunodeficiency virus 1, MT4, 120 h

Cc1cc(/C=C/C#N)cc(C)c1Cc1nc(NC2CCN(Cc3ccc(C(N)=O)cc3)CC2)ncc1-c1cncnc1
IC50 (Cytochrome P450 1A2): > 50000 nM
EC50 [1]: 10.1 nM
AUC(0-t) [2]: 400 ng·h/mL
selectivity ratio [3]: 4630
EC50 [4]: 4.9 nM
IC50 [4]: 121 nM
EC50 ([5]; read-out: EC50): 11.8 nM
EC50 ([5]; read-out: pEC50 (converted)): 12 nM
EC50 ([6]; read-out: EC50): 9.49 nM
EC50 ([6]; read-out: pEC50 (converted)): 9.55 nM
Tmax [7]: 2 h
EC50 ([8]; read-out: EC50): 5.88 nM
EC50 ([8]; read-out: pEC50 (converted)): 5.89 nM
EC50 ([9]; read-out: EC50): 3.43 nM
EC50 ([9]; read-out: pEC50 (converted)): 3.47 nM
IC50 (Cytochrome P450 3A4): 10900 nM
bioavailability [10]: 31.8%
CC50 at 120 h [11]: 22800 nM
IC50 (Cytochrome P450 2C9): 18900 nM
Cmax [12]: 252 ng/mL
EC50 ([13]; read-out: EC50): 15.3 nM
EC50 ([13]; read-out: pEC50 (converted)): 15.5 nM
IC50 (Cytochrome P450 2D6): 42500 nM
Cmax [14]: 587 ng/mL
AUC(0-inf) [15]: 642 ng·h/mL
half-life [16]: 1.33 h
EC50 [17]: 4.95 nM
AUC(0-inf) [18]: 403 ng·h/mL
IC50 (Cytochrome P450 2C19): > 50000 nM
Activity [19]: Non-Toxic
clearance [20]: 82.7 mL/min/kg
AUC(0-t) [21]: 654 ng·h/mL
EC50 [22]: 10 nM
half-life [23]: 1.2 h
Tmax [24]: 1.98 min
Activity [25]: Non-Toxic
selectivity ratio [26]: 2270
Activity [27]: Non-Toxic
EC50 ([28]; read-out: EC50): 4.77 nM
EC50 ([28]; read-out: pEC50 (converted)): 4.79 nM
